Measurements taken from patent publication US20250129069A1, “TRIAZOLO WRN INHIBITORS” (Nimbus Wadjet, Inc., priority 2023, published 2025).

Tests used:
[1] = system: p21 induction in HCT 116 cells; experiment: p21 induction in cells (In-Cell Western, p21/GAPDH ratio); format: cell-based; conditions: Homo sapiens, 24 h compound incubation, read-out: p21_EC50
How it was run: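 HCT 116 cells treated 24 h at 37° C with 11-point, 2-fold dilutions typically from 10 μM, in duplicate. Fixed cells co-stained for p21 (800 nm) and GAPDH (700 nm) by In-Cell Western. p21/GAPDH ratio normalised between DMSO and reference WRN inhibitor controls, and EC50 obtained by nonlinear regression.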

[2] = biological target: human Werner helicase (WRN, amino acids 517-1235 with L1074F point mutation) (Homo sapiens (Human), UniProt Q14191, L1074F); experiment: WRN (BV08) ADP-Glo assay; format: biochemical; conditions: human WRN (aa 517-1235, L1074F), read-out: ADP-Glo_hWRN_IC50
How it was run: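 Untagged WRN 517-1235 (L1074F), Sf9/baculovirus-expressed, 0.15 nM, preincubated 15 min with compound, then 5 μM ATP and 0.1 nM annealed DNA duplex added; 60 min at 25 °C in Bicine pH 7.5, 1 mM MgCl2, 1% DMSO. ADP-Glo luminescence; % inhibition vs DMSO and 20 μM NSC-617145 controls, four-parameter IC50 fit.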

Sequence of human Werner helicase (WRN, amino acids 517-1235 with L1074F point mutation) (Q14191 other isoform, or with tags, fused parts or gaps L1074F (already in the parent)): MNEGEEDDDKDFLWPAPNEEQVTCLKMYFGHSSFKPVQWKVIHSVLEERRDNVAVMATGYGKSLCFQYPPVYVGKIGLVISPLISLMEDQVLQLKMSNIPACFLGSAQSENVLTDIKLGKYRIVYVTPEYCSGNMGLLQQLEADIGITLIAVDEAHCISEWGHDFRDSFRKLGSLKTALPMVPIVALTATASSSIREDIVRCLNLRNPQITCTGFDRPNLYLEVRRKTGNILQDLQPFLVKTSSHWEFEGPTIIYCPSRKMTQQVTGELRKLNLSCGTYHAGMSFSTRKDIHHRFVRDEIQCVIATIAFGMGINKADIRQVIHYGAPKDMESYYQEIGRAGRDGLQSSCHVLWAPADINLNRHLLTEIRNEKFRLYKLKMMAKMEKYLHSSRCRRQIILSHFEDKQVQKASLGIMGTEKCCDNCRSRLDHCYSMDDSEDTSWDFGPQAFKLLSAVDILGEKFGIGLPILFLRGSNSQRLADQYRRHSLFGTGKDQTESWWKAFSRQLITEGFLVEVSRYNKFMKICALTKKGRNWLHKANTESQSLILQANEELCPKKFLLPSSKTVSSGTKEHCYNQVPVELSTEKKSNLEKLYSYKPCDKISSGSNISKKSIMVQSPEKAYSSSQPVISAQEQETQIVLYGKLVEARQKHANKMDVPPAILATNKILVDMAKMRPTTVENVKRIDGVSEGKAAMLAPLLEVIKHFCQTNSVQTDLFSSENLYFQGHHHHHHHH

SMILES | EC50 [1] | IC50 [2]
CCc1c(N2CCN(C(=O)c3ncnc(C)c3O)[C@H]3CC[C@@H]32)c(=O)c2nn(-c3ccnc(OC)c3)nc2n1CC(=O)NC12CC(C3CCC3)(C1)C2 [Compound I-28, N-(3-cyclobutylbicyclo[1.1.1]pentan-1-yl)-2-(5-ethyl-6-((1S,6S)-5-(5-hydroxy-6-methylpyrimidine-4-carbonyl)-2,5-diazabicyclo[4.2.0]octan-2-yl)-2-(2-methoxypyridin-4-yl)-7-oxo-2,7-dihydro-4H-[1,2,3]triazolo[4,5-b]pyridin-4-yl)acetamide] | ≤ 500 nM | ≤ 5 nM
CCc1c(N2CCN(C(=O)c3c(OC)ncc(C)c3O)CC2)c(=O)c2nn(-c3ccnc(OC)c3)nc2n1CC(=O)NC12CC(N3CCCC3)(C1)C2 [Compound I-124, 2-{5-ethyl-6-[4-(4-hydroxy-2-methoxy-5-methylpyridine-3-carbonyl)piperazin-1-yl]-2-(2-methoxypyridin-4-yl)-7-oxo-2H,4H,7H-[1,2,3]triazolo[4,5-b]pyridin-4-yl}-N-[3-(pyrrolidin-1-yl)bicyclo[1.1.1]pentan-1-yl]acetamide] | > 5000 nM | > 500 nM
CCc1c(N2CCN(C(=O)c3ncnc(C)c3O)[C@H]3CC[C@@H]32)c(=O)c2nn(-c3ccnc(OC)c3)nc2n1CC(=O)NC1CC2(CCC2)C1 [Compound I-21, 2-(5-ethyl-6-((1S,6S)-5-(5-hydroxy-6-methylpyrimidine-4-carbonyl)-2,5-diazabicyclo[4.2.0]octan-2-yl)-2-(2-methoxypyridin-4-yl)-7-oxo-2,7-dihydro-4H-[1,2,3]triazolo[4,5-b]pyridin-4-yl)-N-(spiro[3.3]heptan-2-yl)acetamide] | ≤ 500 nM | 5 to 50 nM
CCc1c(N2CCN(C(=O)c3ncnc(C)c3O)[C@H]3CC[C@@H]32)c(=O)c2nn(-c3ccnc(OC)c3)nc2n1CC(=O)NC12CC(C(C)C)(C1)C2 [Compound I-14, 2-(5-ethyl-6-((1S,6S)-5-(5-hydroxy-6-methylpyrimidine-4-carbonyl)-2,5-diazabicyclo[4.2.0]octan-2-yl)-2-(2-methoxypyridin-4-yl)-7-oxo-2,7-dihydro-4H-[1,2,3]triazolo[4,5-b]pyridin-4-yl)-N-(3-isopropylbicyclo[1.1.1]pentan-1-yl)acetamide] | ≤ 500 nM | 5 to 50 nM
CCc1c(N2CCN(C(=O)c3ncnc(C)c3O)[C@H]3CC[C@@H]32)c(=O)c2nn(-c3ccnc(OC)c3)nc2n1CC(=O)Nc1ccc(C(F)(F)F)cc1F [Compound I-126, 2-{5-ethyl-6-[(1S,6S)-5-(5-hydroxy-6-methylpyrimidine-4-carbonyl)-2,5-diazabicyclo[4.2.0]octan-2-yl]-2-(2-methoxypyridin-4-yl)-7-oxo-2H,4H,7H-[1,2,3]triazolo[4,5-b]pyridin-4-yl}-N-[2-fluoro-4-(trifluoromethyl)phenyl]acetamide] | ≤ 500 nM | ≤ 5 nM
CCc1c(N2CCN(C(=O)c3cn(C)nc3OC)[C@H]3CC[C@@H]32)c(=O)c2nn(C3=CCOCC3)nc2n1CC(=O)NC12CC(C(C)C)(C1)C2 [Compound I-209, 2-[2-(3,6-dihydro-2H-pyran-4-yl)-5-ethyl-6-[(1S,6S)-5-(3-methoxy-1-methyl-1H-pyrazole-4-carbonyl)-2,5-diazabicyclo[4.2.0]octan-2-yl]-7-oxo-2H,4H,7H-[1,2,3]triazolo[4,5-b]pyridin-4-yl]-N-[3-(propan-2-yl)bicyclo[1.1.1]pentan-1-yl]acetamide] | 500 to 2000 nM | 5 to 50 nM
CCc1c(N2CCN(C(=O)c3ncnc(C)c3O)[C@H]3CC[C@@H]32)c(=O)c2nn(C3=CCOCC3)nc2n1CC(=O)NC12CC(C(C)C)(C1)C2 [Compound I-18, 2-(2-(3,6-dihydro-2H-pyran-4-yl)-5-ethyl-6-((1S,6S)-5-(5-hydroxy-6-methylpyrimidine-4-carbonyl)-2,5-diazabicyclo[4.2.0]octan-2-yl)-7-oxo-2,7-dihydro-4H-[1,2,3]triazolo[4,5-b]pyridin-4-yl)-N-(3-isopropylbicyclo[1.1.1]pentan-1-yl)acetamide] | ≤ 500 nM | 5 to 50 nM
CCc1c(N2CCN(C(=O)c3cnn(C)c3OC)[C@H]3CC[C@@H]32)c(=O)c2nn(C3=CCOCC3)nc2n1CC(=O)NC12CC(C(C)C)(C1)C2 [Compound I-210, 2-[2-(3,6-dihydro-2H-pyran-4-yl)-5-ethyl-6-[(1S,6S)-5-(5-methoxy-1-methyl-1H-pyrazole-4-carbonyl)-2,5-diazabicyclo[4.2.0]octan-2-yl]-7-oxo-2H,4H,7H-[1,2,3]triazolo[4,5-b]pyridin-4-yl]-N-[3-(propan-2-yl)bicyclo[1.1.1]pentan-1-yl]acetamide] | 500 to 2000 nM | 5 to 50 nM
CCc1c(N2CCN(C(=O)c3ncnc(C)c3O)[C@H]3CC[C@@H]32)c(=O)c2nn(-c3cc(C)n(C)n3)nc2n1CC(=O)NC1CC2(CCC2)C1 [Compound I-36, 2-[2-(1,5-dimethyl-1H-pyrazol-3-yl)-5-ethyl-6-[(1S,6S)-5-(5-hydroxy-6-methylpyrimidine-4-carbonyl)-2,5-diazabicyclo[4.2.0]octan-2-yl]-7-oxo-2H,4H,7H-[1,2,3]triazolo[4,5-b]pyridin-4-yl]-N-{spiro[3.3]heptan-2-yl}acetamide] | ≤ 500 nM | 5 to 50 nM
CCc1c(N2CCN(C(=O)c3c(OC)ncc(C)c3O)[C@H]3CC[C@@H]32)c(=O)c2nn(-c3ccnc(OC)c3)nc2n1CC(=O)NC1CC2(CCC2)C1 [Compound I-93, 2-{5-ethyl-6-[(1S,6S)-5-(4-hydroxy-2-methoxy-5-methylpyridine-3-carbonyl)-2,5-diazabicyclo[4.2.0]octan-2-yl]-2-(2-methoxypyridin-4-yl)-7-oxo-2H,4H,7H-[1,2,3]triazolo[4,5-b]pyridin-4-yl}-N-{spiro[3.3]heptan-2-yl}acetamide] | ≤ 500 nM | 5 to 50 nM
CCc1c(N2CCN(C(=O)c3c(OC)ncc(OC)c3O)CC2)c(=O)c2nn(-c3ccnc(OC)c3)nc2n1CC(=O)NC12CC(C(C)C)(C1)C2 [Compound I-64, 2-{5-ethyl-6-[4-(4-hydroxy-2,5-dimethoxypyridine-3-carbonyl)piperazin-1-yl]-2-(2-methoxypyridin-4-yl)-7-oxo-2H,4H,7H-[1,2,3]triazolo[4,5-b]pyridin-4-yl}-N-[3-(propan-2-yl)bicyclo[1.1.1]pentan-1-yl]acetamide] | ≤ 500 nM | 5 to 50 nM
CCc1c(N2CCN(C(=O)c3c(OC)ncc(C)c3O)[C@H]3CC[C@@H]32)c(=O)c2nn(-c3ccnc(C)c3)nc2n1CC(=O)Nc1ccc(C(F)(F)F)cc1Cl [Compound I-100, N-[2-chloro-4-(trifluoromethyl)phenyl]-2-{5-ethyl-6-[(1S,6S)-5-(4-hydroxy-2-methoxy-5-methylpyridine-3-carbonyl)-2,5-diazabicyclo[4.2.0]octan-2-yl]-2-(2-methylpyridin-4-yl)-7-oxo-2H,4H,7H-[1,2,3]triazolo[4,5-b]pyridin-4-yl}acetamide] | ≤ 500 nM | 5 to 50 nM
CCc1c(N2CCN(C(=O)c3c(O)ccc4ncoc34)CC2)c(=O)c2nn(-c3ccnc(OC)c3)nc2n1CC(=O)NC12CC(CC)(C1)C2 [Compound I-142, 2-{5-ethyl-6-[4-(6-hydroxy-1,3-benzoxazole-7-carbonyl)piperazin-1-yl]-2-(2-methoxypyridin-4-yl)-7-oxo-2H,4H,7H-[1,2,3]triazolo[4,5-b]pyridin-4-yl}-N-{3-ethylbicyclo[1.1.1]pentan-1-yl}acetamide] | ≤ 500 nM | 5 to 50 nM
CCc1c(N2CCN(C(=O)c3cccc4ncoc34)[C@H]3CC[C@@H]32)c(=O)c2nn(-c3ccnc(OC)c3)nc2n1CC(=O)NC12CC(C(C)C)(C1)C2 [Compound I-108, 2-{6-[(1S,6S)-5-(1,3-benzoxazole-7-carbonyl)-2,5-diazabicyclo[4.2.0]octan-2-yl]-5-ethyl-2-(2-methoxypyridin-4-yl)-7-oxo-2H,4H,7H-[1,2,3]triazolo[4,5-b]pyridin-4-yl}-N-[3-(propan-2-yl)bicyclo[1.1.1]pentan-1-yl]acetamide] | 500 to 2000 nM | 5 to 50 nM
CCc1c(C2=CCN(C(=O)c3ncnc(C)c3O)CC2)c(=O)c2nn(-c3ccnc(OC)c3)nc2n1CC(=O)NC12CC(C(C)C)(C1)C2 [Compound I-79, 2-{5-ethyl-6-[1-(5-hydroxy-6-methylpyrimidine-4-carbonyl)-1,2,3,6-tetrahydropyridin-4-yl]-2-(2-methoxypyridin-4-yl)-7-oxo-2H,4H,7H-[1,2,3]triazolo[4,5-b]pyridin-4-yl}-N-[3-(propan-2-yl)bicyclo[1.1.1]pentan-1-yl]acetamide] | 500 to 2000 nM | 5 to 50 nM
CCc1c(N2CCN(C(=O)c3ncnc(C)c3O)[C@H]3CC[C@@H]32)c(=O)c2nn(C3=CC(C)OCC3)nc2n1CC(=O)NC12CC(C3CC3)(C1)C2 (stereo partly drawn) [Compound I-164, N-{3-cyclopropylbicyclo[1.1.1]pentan-1-yl}-2-{5-ethyl-6-[(1S,6S)-5-(5-hydroxy-6-methylpyrimidine-4-carbonyl)-2,5-diazabicyclo[4.2.0]octan-2-yl]-2-(6-methyl-3,6-dihydro-2H-pyran-4-yl)-7-oxo-2H,4H,7H-[1,2,3]triazolo[4,5-b]pyridin-4-yl}acetamide] | ≤ 500 nM | 5 to 50 nM
